# Laboratory results: patent US7018643B2, “Pesticide delivery system” (Engelhard Corporation, priority 2000, dated 2006)
# System: Erwinia amylovora (Ea) strain AFRS-581
# Test: Fireblight blossom infection on potted 'Rome' apple trees inoculated with Erwinia amylovora, greenhouse
# Type: in vivo
# Conditions: 'Rome' apple blossoms sprayed with 10^8 CFU Ea, treated about 1 hour later, scored after 7 days; PM 3% weight by volume; copper hydroxide 0.5 g/l; Blight Ban 1 g/l; streptomycin 0.5 g/l
# Description: The enhanced effect of reducing fireblight in apple trees with the pesticide delivery system of the present invention containing bactericides is examined and compared to conventional pesticides.
# Experiments are conducted on potted trees of ‘Rome’ apple in a naturally illuminated greenhouse. When about 80% of the blooms are open, open blossoms are sprayed to drip with 10^8 CFU of Erwinia amylovora (Ea) strain AFRS-581. After drying for about 1 hour, each the following treatments are applied to six of the infected trees. Slurries containing particulate materials (PM) (3% weight by volume), water and copper hydroxide at 0.5 g/l (Copper Count N from Mineral Research Development Co., Charlotte, N.C., a bactericide), Blight Ban at 1 g/l (from Plant Health Technologies, Boise, Id., a microbial bactericide), or streptomycin at 0.5 g/l (from Novartis Crop Protection Inc., Greensboro, N.C., an antibiotic); and slurries containing PM (3% weight by volume) and water; and mixtures of water and copper hydroxide at 0.5 g/l, Blight Ban at 1 g/l, or streptomycin at 0.5 g/l are applied to the apple trees. […]
# After 7 days, blossom necrosis symptoms are present and recorded. Disease data are expressed as percentage of blossom infect rate.
structure (smiles),measurement,value
[Cu+2].[OH-].[OH-] [copper hydroxide],% Blossom Infection,87.1%
[H]/N=C(/N)N[C@H]1[C@H](O)[C@@H](O)[C@H](O[C@@H]2O[C@@H](C)[C@](O)(C=O)[C@H]2O[C@@H]2O[C@@H](CO)[C@H](O)[C@@H](O)[C@@H]2NC)[C@@H](N/C(N)=N\[H])[C@@H]1O [streptomycin],% Blossom Infection,83.3%
